Experimental data as given in patent publication US12570684B2 (UNIVERSITY OF TENNESSEE RESEARCH FOUNDATION, priority 2020, dated 2026).
Converted amounts (≈) assume the structure as drawn. Like-named read-outs stand apart in the source and are kept apart here.

Experiments:
WecA (E. coli) = WecA (E. coli) (Escherichia coli, UniProt P0AC78); assay: WecA assay
Procedure: Preparation of membrane fraction P-60 containing WecA. E. coli B21 wecA strain were harvested by centrifugation (4,700 rpm) at 4° C. followed by washing with 0.9% saline solution (thrice). The washed cell pellets were washed with homogenization buffer (containing 50 mM K2HPO4, 5 mM MgCl2, 5 mM 1,4-dithio-DL-threitol, and 10% glycerol, pH=7.2) (thrice), and approximately 5 g of pellet (wet weight) was collected. The washed cell pellets were suspended in homogenization buffer and disrupted by probe sonication on ice (5 s on and 2 s off for 1 min, then cool down for 1.5 min., 5 cycles, cool down for 15 min, and then, 5 s on and 2 s off for 1 min., cool down for 1.5 min, 5 cycles). The resulting suspension was centrifuged at 4,700×g for 15 min. at 4° C. to remove unbroken cells. The lysate was centrifuged at 25,000×g for 20 min. at 4° C. The supernatant was subjected to ultracentrifugation at 60,000×g for 1 h at 4° C. The supernatant was discarded, and the membrane fraction containing WecA enzyme (P-60) was suspended in the Tris-HCl buffer (pH=7.5). Total protein concentrations were approximately 8 to 10 mg/mL. Aliquots were stored in Eppendorf tubes at −80° C.

AglH (M. jannaschii) = molecular target: T1, AglH (M. jannaschii) (Methanocaldococcus jannaschii, UniProt Q58513); assay: AglH assay
T1 sequence (Q58513 1-301): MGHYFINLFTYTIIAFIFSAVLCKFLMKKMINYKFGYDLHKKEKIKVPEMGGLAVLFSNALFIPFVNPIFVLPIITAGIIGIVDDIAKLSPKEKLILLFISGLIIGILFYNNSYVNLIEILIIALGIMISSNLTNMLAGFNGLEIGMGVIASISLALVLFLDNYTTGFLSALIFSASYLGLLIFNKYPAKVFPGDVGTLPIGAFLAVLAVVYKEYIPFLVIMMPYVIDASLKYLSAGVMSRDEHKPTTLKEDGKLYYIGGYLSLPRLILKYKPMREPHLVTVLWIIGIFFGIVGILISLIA

WecA = conditions: background, reported; cited from earlier work
DPAGT1 (Human) = molecular target: T2, DPAGT1 (Human) (Homo sapiens, UniProt Q9H3H5); assay: DPAGT1 assay; format: biochemical
T2 construct: made in house; host or cells: Expi293 cells (suspension)
T2 sequence (Q9H3H5 1-408): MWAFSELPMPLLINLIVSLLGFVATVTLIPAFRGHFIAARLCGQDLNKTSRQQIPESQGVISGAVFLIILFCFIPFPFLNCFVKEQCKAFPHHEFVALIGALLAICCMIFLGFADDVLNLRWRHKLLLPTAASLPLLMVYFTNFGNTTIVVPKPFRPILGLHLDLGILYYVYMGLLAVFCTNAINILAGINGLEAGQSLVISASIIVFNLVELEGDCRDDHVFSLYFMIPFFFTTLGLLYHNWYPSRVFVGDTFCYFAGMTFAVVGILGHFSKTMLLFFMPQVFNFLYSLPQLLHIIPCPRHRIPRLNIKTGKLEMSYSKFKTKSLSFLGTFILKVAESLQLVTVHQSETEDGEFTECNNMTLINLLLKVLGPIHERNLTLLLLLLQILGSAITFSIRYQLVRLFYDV
Procedure: DPAGT1 expression and purification. DPAGT1 was expressed in suspended Expi293 cells for 36 h. The cells were lysed by drawing through a 26 g needle (10 times) and membrane protein was extracted using buffer containing 1% decyl f3-D-maltopyranoside detergent. DPAGT1 was purified using HA-agarose resin and a superdex 200 size exclusion column.

[1] = molecular target: MraY (Hydrogenivirga sp.) (Hydrogenivirga sp. 128-5-R1-1, UniProt Z9Y2G8N0L0); assay: MraY assay; format: biochemical
Chain of MraY (Hydrogenivirga sp.) (Z9Y2G8N0L0 7-365 limits assumed): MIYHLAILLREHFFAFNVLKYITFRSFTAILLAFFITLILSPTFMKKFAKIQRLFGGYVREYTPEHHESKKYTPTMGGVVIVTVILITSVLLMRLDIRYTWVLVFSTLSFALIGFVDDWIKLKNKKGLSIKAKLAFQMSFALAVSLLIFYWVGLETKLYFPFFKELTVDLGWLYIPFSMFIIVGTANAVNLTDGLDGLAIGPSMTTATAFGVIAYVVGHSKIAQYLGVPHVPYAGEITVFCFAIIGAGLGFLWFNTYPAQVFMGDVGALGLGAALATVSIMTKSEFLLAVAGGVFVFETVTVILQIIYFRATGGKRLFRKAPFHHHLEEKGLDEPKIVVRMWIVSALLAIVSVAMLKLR
Procedure: Expression and purification of HyMraY. The gene mraY of Hydrogenivirga spp. 128-5-R1-1 was cloned with a N-terminal His6 tag into a pET22b vector. […] The proteins were purified using a nickel, cation exchange, and size exclusion chromatography.
MraY assay. MraY assay substrates, Park's nucleotide-N^ε-C6-dansylthiourea, neryl phosphate, were chemically synthesized according to the reported procedures.^7 Park's nucleotide-N^ε-C6-dansylthiourea (2 mM stock solution, 1.88 jiL), MgCl2 (0.5 M, 5 jiL), KCl (2 M, 5 jiL), Triton X-100 (0.5%, 5.63 jiL), Tris buffer (pH 8.0, 50 mM), neryl phosphate (0.1 M, 2.25 jiL), and inhibitor molecule (0-50 .ig/mL in Tris buffer) were placed in a 1.5 mL Eppendorf tube. […] (26° C.) and quenched with CHCl3 (100 jiL). […] The aqueous phase was assayed via reverse-phase HPLC.

PD002 [2] = assay: Scratch (wound healing) assay; format: cell-based; conditions: 0.2 μM, 24 h; untreated PD002 63%
Procedure: Scratch Assay. A confluent monolayer was formed in 24-well plates. The monolayer was scratched by a sterile 200 μL pipette tip and washed with PBS to remove cell debris. Complete medium with CPPB (5) (0, 0.05, 0.1, 0.2 μM) were added and scratched areas were photographed with microscope. The scratched cells were incubated at 37° C., 5% CO2. After 24 h, medium was removed and cells were stained with a 1:1 mixture of crystal violet and PBS for 5 min., washed with PBS twice, and photographed with microscope. Wound areas were measured and recovered areas were calculated.

PD002 [3] = assay: Checkerboard synergy (FIC index) with paclitaxel; format: cell-based
Procedure: The synergistic or antagonistic activities of CPPB were assessed in vitro via checkerboard technique.

[4] = read-out: IC50 AglH (M. jannaschii)

Chain of WecA (E. coli) (P0AC78 whole entry): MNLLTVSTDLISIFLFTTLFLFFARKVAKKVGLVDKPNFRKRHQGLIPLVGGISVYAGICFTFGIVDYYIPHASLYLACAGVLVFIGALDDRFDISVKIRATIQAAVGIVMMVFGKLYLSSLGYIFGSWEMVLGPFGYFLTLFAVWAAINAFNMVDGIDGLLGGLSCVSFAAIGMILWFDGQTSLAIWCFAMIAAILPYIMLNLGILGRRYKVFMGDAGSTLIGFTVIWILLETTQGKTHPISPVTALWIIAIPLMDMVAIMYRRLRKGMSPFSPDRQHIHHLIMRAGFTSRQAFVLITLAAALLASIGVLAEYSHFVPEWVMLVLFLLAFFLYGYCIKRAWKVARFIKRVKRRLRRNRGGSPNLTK

## COC1C(O)[C@H](n2ccc(=O)[nH]c2=O)O[C@@H]1[C@@H](O[C@H]1OC(CNCc2ccc(N3CCC(c4ccc(OC(F)(F)F)cc4)CC3)cc2)=C[C@H](O)[C@@H]1O)C(N)=O (stereo partly drawn) [CPPA, (2R)-2-(((2S,3S,4S)-3,4-Dihydroxy-6-(((4-(4-(4-(trifluoromethoxy)phenyl)piperidin-1-yl)benzyl)-amino)-methyl)-3,4-dihydro-2H-pyran-2-yl)oxy)-2-((2S,5R)-5-(2,4-dioxo-3,4-dihydropyrimidin-1(2H)-yl)-4-hydroxy-3-methoxytetrahydrofuran-2-yl)acetamide]
WecA (E. coli)
  IC50: > 50 µM
AglH (M. jannaschii)
  IC50: > 50 µM

## CCCCc1ccc(NC(=O)C2=CCN(C)[C@@H]([C@H](O[C@@H]3O[C@H](CN)[C@@H](O)[C@H]3O)[C@H]3O[C@@H](n4ccc(=O)[nH]c4=O)[C@H](O)[C@@H]3O)C(=O)N2C)cc1 [CPZEN-45]
WecA
  IC50 WecA: ~0.058 µg/mL (≈ 0.0842 µM)

## NC(=O)[C@H](O[C@H]1OC(C(=O)NCc2ccc(N3CCC(c4ccc(OC(F)(F)F)cc4)CC3)cc2)=C[C@H](O)[C@@H]1O)[C@H]1O[C@@H](n2ccc(=O)[nH]c2=O)C(O)C1O (stereo partly drawn) [DM-CPPB, (2S,3S,4S)-2-((1R)-2-Amino-1-((2S,5R)-5-(2,4-dioxo-3,4-dihydropyrimidin-1(2H)-yl)-3,4-dihydroxy-tetrahydrofuran-2-yl)-2-oxoethoxy)-3,4-dihydroxy-N-(4-(4-(4-(trifluoromethoxy)phenyl)-piperidin-1-yl)benzyl)-3,4-dihydro-2H-pyran-6-carboxamide]
WecA (E. coli)
  IC50: 30 µM
AglH (M. jannaschii)
  IC50: > 50 µM

## NC(=O)[C@H](O[C@H]1OC(C(=O)N[C@H]2CCCCNC2=O)=C[C@H](O)[C@@H]1O)[C@H]1O[C@@H](n2ccc(=O)[nH]c2=O)C(O)C1O (stereo partly drawn) [Dimethyl capuramycin, (2S,3S,4S)-2-((1R)-2-Amino-1-((2S,5R)-5-(2,4-dioxo-3,4-dihydropyrimidin-1(2H)-yl)-3,4-dihydroxy-tetrahydrofuran-2-yl)-2-oxoethoxy)-3,4-dihydroxy-N—((S)-2-oxoazepan-3-yl)-3,4-dihydro-2H-pyran-6-carboxamide]
WecA (E. coli)
  IC50: 35 µM
DPAGT1 (Human)
  IC50: > 50 µM
AglH (M. jannaschii)
  IC50: > 50 µM
[1]
  IC50: > 50 µM

## Nc1ccn([C@@H]2O[C@H](CO)[C@@H](O)C2(F)F)c(=O)n1 [Gemcitabine]
PD002 [2]
  wound-healing rate: 43%

## COC1C(O)[C@@H]([C@@H](O[C@H]2OC(C(=O)NCc3ccc(N4CCC(c5ccc(OC(F)(F)F)cc5)CC4)cc3)=C[C@H](O)[C@@H]2O)C(N)=O)O[C@H]1n1ccc(=O)[nH]c1=O (stereo partly shown) [I-CPPB]
WecA (E. coli)
  IC50: 20 µM
DPAGT1 (Human)
  IC50: 0.6 µM
AglH (M. jannaschii)
  IC50: 15 µM

## CC(=O)O[C@H]1C(=O)[C@@]2(C)[C@H]([C@H](OC(=O)c3ccccc3)[C@]3(O)C[C@H](OC(=O)[C@H](O)[C@@H](NC(=O)c4ccccc4)c4ccccc4)C(C)=C1C3(C)C)[C@]1(OC(C)=O)CO[C@@H]1C[C@@H]2O [Paclitaxel, reference compound]
PD002 [3]; PD002, alone, read-out: IC50 of the single agent against PD002
  IC50: 1250 nM
PD002 [3]; PD002, read-out: IC50 CB (paclitaxel in combination), entry 1, with CPPB 0.10 μM
  IC50: 630 nM
PD002 [3]; PD002, read-out: IC50 CB (paclitaxel in combination), entry 2, with CPPB 0.10 μM
  IC50: 160 nM
PD002 [3]; PD002, read-out: IC50 CB (paclitaxel in combination), entry 3, with CPPB 0.20 μM
  IC50: 4.9 nM
PD002 [3]; PD002, read-out: IC50 CB (paclitaxel in combination), entry 4, with CPPB 0.20 μM
  IC50: 20 nM
PD002 [3]; PD002, read-out: IC50 CB (paclitaxel in combination), entry 5, with CPPB 0.20 μM
  IC50: 31 nM
PD002 [3]; PD002, read-out: IC50 CB (paclitaxel in combination), entry 6, with CPPB 2.0 μM
  IC50: 20 nM
PD002 [3]; PD002, read-out: IC50 CB (paclitaxel in combination), entry 7, with CPPB 2.0 μM
  IC50: 39 nM
PD002 [3]; PD002, read-out: IC50 CB (paclitaxel in combination), entry 8, with CPPB 2.0 μM
  IC50: 310 nM
PD002 [3]; PD002, read-out: IC50 of paclitaxel against PD002 in combination with CPPB, with CPPB (0.1-2.0 μM)
  IC50: 24 to 610 nM
PD002 [3]; in combination with CPPB (0.2-2.0 μM)
  improvement of cytostatic activity of paclitaxel: over 250 times

## COC1C(O)C(C(OC2OC(C(=O)NC3CCCCNC3=O)=CC(O)C2O)C(N)=O)OC1n1ccc(=O)[nH]c1=O [iso-Capuramycin, (2S,3S,4S)-2-((1R)-2-Amino-1-(2S,5R)-5-(2,4-dioxo-3,4-dihydropyrimidin-1(2H)-yl)-3-hydroxy-4-methoxytetrahydrofuran-2-yl)-2-oxoethoxy)-3,4-dihydroxy-N—((S)-2-oxoazepan-3-yl)-3,4-dihydro-2H-pyran-6-carboxamide]
WecA (E. coli)
  IC50: 30 µM
DPAGT1 (Human)
  IC50: 11.5 µM
AglH (M. jannaschii)
  IC50: 20 µM

## (2R)-2-(((2S,3S,4S)-3,4-dihydroxy-6-(((4-(4-(4-(trifluoromethoxy)phenyl)pipendin-1-yl)-benzyl)amino)methyl)-3,4-dihydro-2H-pyran-2-yl)oxy)-2-((2S,5R)-5-(2,4-dioxo-3,4-dihydro-pyrimidin-1(2H)-yl)-3-hydroxy-4-methoxytetrahydrofuran-2-yl)acetamide [I-CPPA]
WecA (E. coli); 50 μM concentration
  WecA inhibition at 50 μM: did not inhibit
WecA (E. coli); read-out: IC50 WecA (E. coli)
  IC50: > 50 µM
DPAGT1 (Human)
  IC50: > 50 µM
DPAGT1 (Human); 50 μM concentration
  DPAGT1 inhibition at 50 μM: did not inhibit
AglH (M. jannaschii); 50 μM concentration
  AglH inhibition at 50 μM: did not inhibit
AglH (M. jannaschii); [4]
  IC50: > 50 µM
[1]
  IC50: > 50 µM
[1]; 50 μM concentration
  MraY inhibition at 50 μM: did not inhibit

## (2S,3S,4S)-2-((1R)-2-Amino-1-(2S,5R)-5-(2,4-dioxo-3,4-dihydropyrimidin-1(2H)-yl)-3,4-dimethoxy-tetrahydrofuran-2-yl)-2-oxoethoxy)-3,4-dihydroxy-N-(4-(4-(4-(trifluoromethoxy)-phenyl)piperidin-1-yl)benzyl)-3,4-dihydro-2H-pyran-6-carboxamide [OM-CPPB]
WecA (E. coli); read-out: IC50 WecA (E. coli)
  IC50: 10 µM
DPAGT1 (Human)
  DPAGT1 inhibitory activity (in words): very low- or no-DPAGT1 inhibitor
  IC50: 20 µM
AglH (M. jannaschii); [4]
  IC50: 30 µM
[1]
  IC50: 5 µM
